In test [1] the target is T1, recombinant human FUCA1 (human lysosomal α-L-fucosidase) (Homo sapiens, UniProt P04066).
T1 construct: expressed in transfected cells; host or cells: COS-7
T1 sequence (P04066 32-466): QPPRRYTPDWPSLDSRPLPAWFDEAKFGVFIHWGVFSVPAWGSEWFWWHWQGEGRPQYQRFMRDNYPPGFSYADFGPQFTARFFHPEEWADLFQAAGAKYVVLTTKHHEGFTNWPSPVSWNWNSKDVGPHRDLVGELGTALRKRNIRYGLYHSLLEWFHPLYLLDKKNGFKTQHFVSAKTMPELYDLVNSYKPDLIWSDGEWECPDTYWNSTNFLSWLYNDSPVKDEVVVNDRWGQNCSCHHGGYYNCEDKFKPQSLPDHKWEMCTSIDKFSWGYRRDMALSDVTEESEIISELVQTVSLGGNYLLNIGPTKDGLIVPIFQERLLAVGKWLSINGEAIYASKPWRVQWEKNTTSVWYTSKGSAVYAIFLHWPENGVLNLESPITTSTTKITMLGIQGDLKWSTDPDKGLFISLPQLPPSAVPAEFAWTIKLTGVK
The test is described as follows: In vitro inhibition of FUCA1 activity, 4-methylumbelliferyl-α-L-fucopyranoside substrate, lysates of COS-7 cells over-expressing enzyme. The test is classed as biochemical. The protocol: Having the cyclophellitol aziridine inhibitors and probes in hand, we determined their inhibitory potency towards the human lysosomal α-L-fucosidase, FUCA1.
The enzymatic activity of α-L-fucosidase was assayed at 37 °C by incubating with 1.5 mM 4-methylumbelliferyl-α-L-fucopyranoside as substrate in 150 mM McIlvaine buffer, pH 4.5, supplemented with 0.1% (w/v) BSA. […] The reaction was quenched by adding excess NaOH–glycine (pH 10.6), after which fluorescence was measured with a fluorimeter LS55 (Perkin Elmer) using λEX 366 nm and λEM 445 nm.

The target in test [2] is T2, FUCA1 (recombinant human GH29 α-L-fucosidase per table title) (Homo sapiens, UniProt P04066).
T2 construct: endogenous in cells; host or cells: fibroblasts
T2 sequence (P04066 32-466): T1 sequence (P04066 32-466)
Put plainly: In situ inhibition of FUCA1 in living fibroblasts. The test is classed as cell-based.

Test [3] concerns the target T3, FUCA1 (Homo sapiens, UniProt P04066).
T3 sequence (P04066 32-466): T1 sequence (P04066 32-466)
The test is described as follows: ABP pulldown from Gaucher spleen lysate and LC-MS/MS identification. Further details: lysates of spleens from a healthy human individual and a patient suffering from Gaucher disease; from tissue; host or cells: human spleen (normal subject and type 1 Gaucher patient). The test is classed as binding. The conditions noted are these: 10 μM probe, Gaucher spleen lysate. The protocol:
To further determine the specificity of the developed ABPs, we have analyzed the ABP-labeled proteins in a complex tissue homogenate. For this purpose, we incubated Gaucher spleen lysate with biotinylated ABP 3 or with DMSO only (control) or competitive ABP 3-labeling by first incubating with fluorescent ABP 1. Glycosylated proteins were then enriched via ConA, followed by affinity purification with streptavidin coated paramagnetic beads. The identity of biotinylated and ABP 3-labeled proteins was determined by on-bead digestion with trypsin, peptide analysis by LC-MS/MS and matching against the human UniProt database, using the Mascot search engine as previously reported.[14] […]
Gaucher spleen lysate (1 g) was cut with a sterile scalpel, mixed with 4 mL 25 mM potassium phosphate buffer (pH 6.5, supplemented with 0.1% (v/v) Triton X-100 and protease inhibitor cocktail (Roche)) and sonicated three times for 10 seconds at 100% strength and kept on ice. […] Lysate was then centrifuged for 10 min at 10 000 g, supernatant collected carefully, protein concentration determined and […] total protein was then incubated with either 0.1% (v/v) DMSO, ABP 1 or ABP 3, or firstly with 10 μM ABP 1 followed by 10 μM of ABP 3, each step taking 30 min at 37 °C, in a total volume of 1 mL McIlvaine buffer, pH 4.5. […]

In test [4] the target is T4, α-L-fucosidase (Homo sapiens, UniProt P04066).
T4 construct: lysates of spleens from a healthy human individual and a patient suffering from Gaucher disease; from tissue; host or cells: human spleen (normal subject and type 1 Gaucher patient)
T4 sequence (P04066 32-466): T1 sequence (P04066 32-466)
The test is described as follows: Competitive ABPP in human spleen lysates (healthy and Gaucher), ABP 1 labeling. It counts as binding. The text has this:
Subsequently, we exposed lysates of spleens from a healthy human individual and a patient suffering from Gaucher disease to ABP 1. […] The labeled band from human Gaucher spleen lysate is considerably more intense than the corresponding band in healthy human spleen, reflecting elevated α-L-fucosidase activity in the former. […] As before, labeling with ABP 1 was suppressed after pre-treatment with either N-benzoyl aziridine 4 or L-fuconojirimycin 6. To further ascertain that […] labels mammalian GH29 retaining α-L-fucosidases we performed a number of control experiments (ESI Fig. S2a ^†). Compound 1 labeled both FUCA1 and FUCA2 that were overexpressed in COS cells. Treatment of murine spleen lysates with 1 yielded a result essentially as observed for healthy human tissue (ESI Fig. S2b ^†).
All pre-incubations and ABP labeling-reactions occurred for 30 min at 37 °C. Total lysates (50 μg), medium (500 μg) or purified protein preparations (5 μg) were labeled with 1 μM JJB256 1 or JJB244 2, dissolved in 150 mM McIlvaine buffer, pH 4.5, incubating for 30 min at 37 °C. […] Wet slab-gels were scanned on fluorescence using a Typhoon Variable Mode Imager (Amersham Biosciences) using λEX 488 nm and λEM 520 nm (band pass filter 40 nm) for green fluorescent JJB256 1 and λEX 532 nm and λEM 610 nM (band pass filter 30 nm) for red fluorescent JJB244 2 and JJB75.

The subject of test [5] is recombinant α-L-fucosidase from Bacteroides thetaiotaomicron gene 2970. The test is described as follows: Competitive ABPP in E. coli lysate overexpressing bacterial α-L-fucosidase, ABP 1 labeling. The test is classed as binding. The protocol:
(§1) All pre-incubations and ABP labeling-reactions occurred for 30 min at 37 °C. Total lysates (50 μg), medium (500 μg) or purified protein preparations (5 μg) were labeled with 1 μM JJB256 1 or JJB244 2, dissolved in 150 mM McIlvaine buffer, pH 4.5, incubating for 30 min at 37 °C. For ABPP, protein preparations were pre-incubated with compounds 4 (100 μM), 6 (100 μM), 7–13 (1 or 5 mM, specified in the main text) prior to the addition of 100 nM fluorescent ABPs. Influence of pH on ABP labeling involved pre-incubation at pH 3–10 prior to addition of 100 nM ABP 1. Direct labeling of retaining β-glucosidases occurred at pH 5.0 in conjunction with 100 nM ABP JJB75. Samples were then denatured with 5× Laemmli buffer (50% (v/v) 1 M Tris–HCl, pH 6.8, 50% (v/v) 100% glycerol, 10% (w/v) DTT, 10% (w/v) SDS, 0.01% (w/v) bromophenol blue), boiled for 4 min at 100 °C, and separated by gel electrophoresis on 10% (w/v) SDS-PAGE gels running continuously at 90 V.[13],[14] Wet slab-gels were scanned on fluorescence using a Typhoon Variable Mode Imager (Amersham Biosciences) using λEX 488 nm and λEM 520 nm (band pass filter 40 nm) for green fluorescent JJB256 1 and λEX 532 nm and λEM 610 nM (band pass filter 30 nm) for red fluorescent JJB244 2 and JJB75.

For test [6], the target named is T3, FUCA1. Put plainly: Competitive ABPP on recombinant FUCA1 with ABP 1 labeling as readout. Further details: expressed in transfected cells; host or cells: COS-7. The conditions noted are these: competitive ABPP format. It counts as binding. The protocol:
as §1

As a reminder, the IC50 is the point on the concentration scale where inhibition reaches its midpoint. On to `COc1ccc(C2=[N+]3C(=C(CCCCc4cn(CCCCCCCC(=O)N5[C@@H]6[C@@H](C)[C@@H](O)[C@@H](O)[C@H](O)[C@@H]65)nn4)c4ccc(-c5ccc(OC)cc5)n4[B-]3(F)F)C=C2)cc1` [compound 2], for which the 50% inhibitory concentration (IC50) is 8.7 ± 1.2 nM in test [1] and 158 ± 22 nM in test [2].
`C[C@H]1[C@@H](O)[C@@H](O)[C@H](O)[C@H]2[C@@H]1N2C(=O)CCCCCCCn1cc(CNC(=O)CCCCCNC(=O)CCCC[C@@H]2SC[C@@H]3NC(=O)N[C@@H]32)nn1` [compound 3]: the “identification of FUCA1 after pull-down” value in test [3] was “one of the top identified proteins”. The concentration for half-maximal inhibition (IC50) in test [1] came to 7.2 ± 1.1 nM.
Consider `C[C@H]1[C@@H](O)[C@@H](O)[C@H](O)[C@H]2[C@@H]1N2C(=O)c1ccccc1` [compound 4], for which the half-inhibitory concentration (IC50) was found to be 372 ± 21.2 nM in test [1] and 515 ± 72.9 nM in test [2]. Moreover, in test [1] (compared to 5), the fold less active entry is on record as “about eight-fold”. Further, the “suppression of ABP 1 labeling after pre-treatment” value in test [4] is recorded as “suppressed”. Also, the “blocking of ABP 1 labeling of major 50 kD band” value in test [5] (pre-incubation with 100 μM) was “blocked”.
Take `CC(=O)N1[C@@H]2[C@@H](C)[C@@H](O)[C@@H](O)[C@H](O)[C@@H]21` [compound 5]: the concentration for half-maximal inhibition (IC50) in test [1] was 46.8 ± 3.4 nM; in test [2], 77.9 ± 9.1 nM.
`C[C@@H]1NC[C@@H](O)[C@H](O)[C@@H]1O.Cl` [compound 6, 1-deoxy-L-fuconojirimycin, reference compound]: the “suppression of ABP 1 labeling after pre-treatment” value in test [4] is recorded as “suppressed”. The “blocking of ABP 1 labeling of major 50 kD band” value in test [5] (pre-incubation with 5 mM) is on record as “blocked”. Besides, the “blocking of ABP 1 labeling of α-L-fucosidase” value in test [6] was “able to inhibit FUCA1”.
In the case of `C[C@H]1[C@@H](O)[C@@H](O)[C@H](O)[C@H]2[C@@H]1N2C(=O)CCCCCCCN=[N+]=[N-]` [compound 23], the results for the IC50 in test [1] and in test [2] were 8.7 ± 1.1 nM and 65.4 ± 7.5 nM, respectively. Besides, in test [1] (comparing 5 with 23), the “fold increase in enzyme inhibition” value came to 5 fold.

(Values after article PMC5654414, “In vitro and in vivo comparative and competitive activity-based protein profiling of GH29 α-L-fucosidases” (Chemical Science, 2015).)
